From patent US20040102522A1, “Dosage form of sodium ibuprofen” (priority 2002, published 2004)

Test: Water uptake (hygroscopicity) of sodium ibuprofen forms
Type: physicochemical

## CC(C)Cc1ccc(C(C)C(=O)O)cc1.O.[Na] (centres unmarked) [sodium ibuprofen hydrate]
Open storage over 6 months at 40° C. and 75% RH, water content 13-14% by weight
  additional water uptake on open storage: did not take up additional water

## CC(C)Cc1ccc(C(C)C(=O)O)cc1.[Na] (centres unmarked) [water free sodium ibuprofen, sodium ibuprofen]
Relative humidity 25% RH, spontaneous
  water taken up: up to 13.6 % by weight
